The text below walks through data of paper PMC3235172, “Distinct Expression Profiles and Different Functions of Odorant Binding Proteins in Nilaparvata lugens Stål” (PLoS ONE, 2011).

In one assay the target is NlugOBP3 (Nilaparvata lugens, UniProt B6E9U3). In words: Competitive fluorescence binding assay (1-NPN probe) with recombinant NlugOBP3. How it is done:
(§1) The excitation wavelength was 337 nm and the emission spectrum was recorded between 370 and 460 nm by a fluorescence spectrometer (Hitachi F-7000 Fluorescence Spectrophotometer, Japan) with a 1 cm light path quartz cuvette and 10 nm slits for both excitation and emission.

Assay [1] has as its target NlugOBP2 (Nilaparvata lugens, UniProt B6E9U2). The experiment in a line: Competitive fluorescence binding assay (1-NPN probe) with recombinant NlugOBP2. How it is done:
as §1

The target of another assay is NlugOBP1 (Nilaparvata lugens, UniProt B6E9U1). In words: Competitive fluorescence binding assay (1-NPN probe) with recombinant NlugOBP1. How it is done: as §1
The target in assay [2] is NlugOBP2. The experiment in a line: Competitive fluorescence binding assay (1-NPN probe) with recombinant NlugOBP2. To be noted: protein and 1-NPN at 2 µM. Also on record: species or system Nilaparvata lugens. How it is done:
as §1

Setting [3] is: calculated from IC50, protein and 1-NPN at 2 µM, pH 7.4, read-out: OBP3 Ki.
Setting [4] is: displacement of 1-NPN, protein and 1-NPN at 2 µM, 50 mM Tris-HCl pH 7.4, read-out: OBP3 IC50.
Where [5] appears, read: calculated from IC50, protein and 1-NPN at 2 µM, pH 7.4, read-out: OBP2 Ki.
Where [6] appears, read: displacement of 1-NPN, protein and 1-NPN at 2 µM, 50 mM Tris-HCl pH 7.4, read-out: OBP2 IC50.
[7] abbreviates: calculated from IC50, protein and 1-NPN at 2 µM, pH 7.4, read-out: OBP1 Ki.
Where [8] appears, read: displacement of 1-NPN, protein and 1-NPN at 2 µM, 50 mM Tris-HCl pH 7.4, read-out: OBP1 IC50.

Read-outs that look alike come from different tables or passages of the source. Where only a bound is given, the exact number is not on record here.

Sequence of NlugOBP1 (B6E9U1 entry or part of it): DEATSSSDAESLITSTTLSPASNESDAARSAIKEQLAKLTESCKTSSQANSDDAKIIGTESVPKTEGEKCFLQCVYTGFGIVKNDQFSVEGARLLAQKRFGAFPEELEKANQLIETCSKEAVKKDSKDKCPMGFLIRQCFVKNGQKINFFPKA
Sequence of NlugOBP3 (B6E9U3 entry or part of it): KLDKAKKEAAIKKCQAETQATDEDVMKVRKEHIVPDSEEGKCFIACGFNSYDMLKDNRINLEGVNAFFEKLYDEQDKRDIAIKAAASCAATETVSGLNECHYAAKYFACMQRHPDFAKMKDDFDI
Sequence of NlugOBP2 (Nilaparvata lugens, UniProt B6E9U2) (B6E9U2 entry or part of it): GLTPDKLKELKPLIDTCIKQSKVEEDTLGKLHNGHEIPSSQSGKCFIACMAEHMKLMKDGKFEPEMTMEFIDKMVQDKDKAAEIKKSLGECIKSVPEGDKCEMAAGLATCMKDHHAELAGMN

The IC50 is the concentration that inhibits the measured activity by half. The term Ki denotes a measure of affinity in units of concentration, obtained from inhibition or displacement. In the case of `CC(=O)/C=C/C1=C(C)CCCC1(C)C` [Ligand 37, β- Ionone], at NlugOBP3, the IC50 amounted to 8.5 µM, the Ki was determined as 6.1 µM and the “binding ability with NlugOBP3 (in words)” value was “relatively high binding abilities”. Further, on NlugOBP2 [1], the IC50 came to 25.8 µM, the inhibition constant (Ki) is 22.2 µM and the “binding ability with NlugOBP2 (in words)” value is on record as “relatively high binding abilities”. Further, on NlugOBP1, the IC50 was found to be 25.2 µM, the inhibition constant Ki turned out to be 21.5 µM and the “binding ability with NlugOBP1 (in words)” value was “relatively high binding abilities”.
For `CC(C)(C)c1cccc(C(C)(C)C)c1O` [Ligand 41, 2,6-Di-tert-butylphenol], the inhibition constant Ki at NlugOBP3 (setting [3]) was 9.5 µM; on NlugOBP2 [1] (setting [5]), greater than 50 µM; on NlugOBP1 (setting [7]), 19 µM. Also, the IC50 at NlugOBP3 (setting [4]) was 13.3 µM; at NlugOBP2 [1] (setting [6]), greater than 50 µM; at NlugOBP1 (setting [8]) it was 22.3 µM.
For the compound `CCCCCCCCCCCCC` [Ligand 29, Tridecane], the Ki on NlugOBP3 (setting [3]), at NlugOBP2 [1] (setting [5]) and on NlugOBP1 (setting [7]) was greater than 50 µM in each case. The concentration for half-maximal inhibition (IC50) at NlugOBP3 (setting [4]), at NlugOBP2 [1] (setting [6]) and at NlugOBP1 (setting [8]) was greater than 50 µM in each case.
For the compound `C=CC(C)(O)CC/C=C(\C)CCC=C(C)C` (racemic) [Ligand 3, (+/-)Nerolidol], the inhibition constant Ki was 17.7 µM at NlugOBP3 (setting [3]), 29.1 µM at NlugOBP2 [1] (setting [5]) and 24.2 µM on NlugOBP1 (setting [7]). For the same compound, the results for the IC50 at NlugOBP3 (setting [4]), at NlugOBP2 [1] (setting [6]) and at NlugOBP1 (setting [8]) were 24.8 µM, 33.9 µM and 28.4 µM, respectively.
Take `CC(=O)c1ccccc1` [Ligand 17, Acetophenone]: the “binding ability with NlugOBP3 (in words)” value on NlugOBP3 is “relatively high binding abilities”. Besides, the Ki at NlugOBP3 (setting [3]) was 23.1 µM; on NlugOBP2 [1] (setting [5]), 27.8 µM; on NlugOBP1 (setting [7]), 29.3 µM. Moreover, the IC50 at NlugOBP3 (setting [4]) turned out to be 32.4 µM; on NlugOBP2 [1] (setting [6]) it was 32.3 µM; at NlugOBP1 (setting [8]), 34.3 µM. Besides, the “binding ability with NlugOBP2 (in words)” value at NlugOBP2 [1] is “relatively high binding abilities”. Also, at NlugOBP1, the “binding ability with NlugOBP1 (in words)” value is given as “relatively high binding abilities”.
Consider `C=CC(=C)CCC=C(C)C` [Ligand 33, Myrcene], for which the IC50 on NlugOBP3 (setting [4]) was determined as 10.1 µM; at NlugOBP2 [1] (setting [6]), 33.9 µM; at NlugOBP1 (setting [8]), 19 µM. Further, the Ki is 7.2 µM at NlugOBP3 (read-out: Ki with NlugOBP3), 29.1 µM at NlugOBP2 [1] (setting [5]) and 16.2 µM on NlugOBP1 (setting [7]).
Regarding `CCCCCCCCCCCCCCCCCCCC` [Ligand 28, Eicosane], the Ki at NlugOBP3 (setting [3]), on NlugOBP2 [1] (setting [5]) and at NlugOBP1 (setting [7]) was greater than 50 µM throughout. In addition, the half-maximal inhibitory concentration (IC50) at NlugOBP3 (setting [4]), at NlugOBP2 [1] (setting [6]) and at NlugOBP1 (setting [8]) was greater than 50 µM in each case.
As for `CCCCCC(C)O` (centres unmarked) [Ligand 2, 2-Heptanol], the Ki on NlugOBP3 (setting [3]), on NlugOBP2 [1] (setting [5]) and on NlugOBP1 (setting [7]) was greater than 50 µM each time. For the same compound, the concentration for half-maximal inhibition (IC50) on NlugOBP3 (setting [4]), on NlugOBP2 [1] (setting [6]) and on NlugOBP1 (setting [8]) was greater than 50 µM in each case.
Regarding `CCCCCCCCCCCC(=O)O` [Ligand 26, Dodecanoic acid], the values for the IC50 at NlugOBP3, on NlugOBP2 [1] and at NlugOBP1 were 13.9 µM, greater than 50 µM and 12.1 µM, respectively. The Ki on NlugOBP3 was 9.9 µM; at NlugOBP2 [1], greater than 50 µM; at NlugOBP1, 10.3 µM.
On to `CCCCCCCCCCCCCCCC(=O)O` [Ligand 27, Palmitic acid], for which the Ki at NlugOBP3 (setting [3]) was 7.2 µM; on NlugOBP2 [1] (setting [5]) it was greater than 50 µM; at NlugOBP1 (setting [7]), 22.1 µM. In addition, the IC50 was 10.1 µM on NlugOBP3 (setting [4]), greater than 50 µM on NlugOBP2 [1] (setting [6]) and 25.9 µM on NlugOBP1 (setting [8]).
As usually defined, the Kd is the constant that tells how readily two partners part at equilibrium. On to `c1ccc(Nc2cccc3ccccc23)cc1` [Ligand 1-NPN, N-phenyl-1-naphthyl-amine, reference compound], for which the Kd on NlugOBP3 turned out to be 3.2 ± 0.3 µM; on NlugOBP2 [1], 10.3 ± 1.3 µM; at NlugOBP1 it was 9.7 ± 0.9 µM.
`OCCc1ccccc1` [Ligand 7, 2-phenylethanol]: the Ki is 26.1 µM at NlugOBP3 (setting [3]), greater than 50 µM on NlugOBP2 [1] (setting [5]) and 34 µM on NlugOBP1 (setting [7]). Also, the results for the 50% inhibitory concentration (IC50) on NlugOBP3 (setting [4]), at NlugOBP2 [1] (setting [6]) and on NlugOBP1 (setting [8]) were 36.6 µM, greater than 50 µM and 39.9 µM, respectively.
Take `C[C@@H]1CC[C@H]2C(C)(C)[C@H]3C[C@@]12CC[C@@]3(C)O` [Ligand 9, Cedrol]: the IC50 stood at 19.7 µM on NlugOBP3; 35 µM at NlugOBP2 [2] (displacement of 1-NPN, 50 mM Tris-HCl pH 7.4, read-out: OBP2 IC50); 30 µM on NlugOBP1. Moreover, the Ki is 14.1 µM at NlugOBP3; 30.1 µM on NlugOBP2 [2] (calculated from IC50, pH 7.4, read-out: OBP2 Ki); 25.6 µM at NlugOBP1.
On to `CCCCCCCCCCCCCCCCCC` [Ligand 31, Octadecane], for which the Ki at NlugOBP3 (setting [3]), on NlugOBP2 [1] (setting [5]) and on NlugOBP1 (setting [7]) was greater than 50 µM throughout. The IC50 at NlugOBP3 (setting [4]), on NlugOBP2 [1] (setting [6]) and at NlugOBP1 (setting [8]) was greater than 50 µM in each case.
As for `CCCCCCOC(C)=O` [Ligand 21, Hexyl acetate], the inhibition constant (Ki) on NlugOBP3 (setting [3]) is 22 µM; at NlugOBP2 [1] (setting [5]), greater than 50 µM; at NlugOBP1 (setting [7]), 37.9 µM. Also, the IC50 on NlugOBP3 (setting [4]) is 30.8 µM; at NlugOBP2 [1] (setting [6]), greater than 50 µM; on NlugOBP1 (setting [8]), 44.4 µM.
Consider `CC12CCC(CC1)C(C)(C)O2` [Ligand 40, Cineole], for which the Ki at NlugOBP3 (setting [3]), at NlugOBP2 [1] (setting [5]) and on NlugOBP1 (setting [7]) was greater than 50 µM in each case. For the same compound, the concentration for half-maximal inhibition (IC50) at NlugOBP3 (setting [4]), on NlugOBP2 [1] (setting [6]) and at NlugOBP1 (setting [8]) was greater than 50 µM throughout.
With `CC(C)=CCC/C(C)=C/CO` [Ligand 8, Geraniol], the half-maximal inhibitory concentration (IC50) is 32.6 µM at NlugOBP3, greater than 50 µM at NlugOBP2 [1] and greater than 50 µM at NlugOBP1. Besides, the values for the inhibition constant (Ki) on NlugOBP3, at NlugOBP2 [1] and at NlugOBP1 were 23.3 µM, greater than 50 µM and greater than 50 µM, respectively.
In the case of `CCOC(=O)c1ccccc1` [Ligand 23, Ethyl benzoate], the IC50 on NlugOBP3 was 39 µM; at NlugOBP2 [1] it was greater than 50 µM; at NlugOBP1 it was greater than 50 µM. Besides, the inhibition constant (Ki) at NlugOBP3 was 27.9 µM; on NlugOBP2 [1], greater than 50 µM; at NlugOBP1, greater than 50 µM.
Consider `CCC/C=C/COC(C)=O` [Ligand 20, (E)-2-Hexenyl acetate], for which the figures for the inhibition constant (Ki) at NlugOBP3 (setting [3]), at NlugOBP2 [1] (setting [5]) and on NlugOBP1 (setting [7]) were 22.4 µM, 25.2 µM and greater than 50 µM, respectively. In addition, the IC50 was 31.3 µM on NlugOBP3 (setting [4]), 29.3 µM on NlugOBP2 [1] (setting [6]) and greater than 50 µM at NlugOBP1 (setting [8]).
`COC(=O)c1ccccc1O` [Ligand 25, Methyl salicylate]: the IC50 was 44.8 µM at NlugOBP3, 37.4 µM on NlugOBP2 [1] and greater than 50 µM at NlugOBP1. Also, the Ki is 32 µM on NlugOBP3, 32.2 µM at NlugOBP2 [1] and greater than 50 µM at NlugOBP1.
As to `C=CC(C)(O)CCC=C(C)C` (centres unmarked) [Ligand 6, Linalool], at NlugOBP3, the half-maximal inhibitory concentration (IC50) is greater than 50 µM, the Ki is greater than 50 µM and the “binding ability with NlugOBP3 (in words)” value is reported as “none”. On NlugOBP2 [1], the half-maximal inhibitory concentration (IC50) was greater than 50 µM and the Ki is greater than 50 µM. Moreover, at NlugOBP1, the half-inhibitory concentration (IC50) was found to be 40.8 µM, the Ki turned out to be 34.7 µM and the “binding ability with NlugOBP1 (in words)” value was “some affinities”.
